Experimental findings from the supplement of paper PMC12463676, “Small-molecule dissolution of stress granules by redox modulation benefits ALS models” (Nature Chemical Biology, 2025) are described below.

Compound in one experiment: NC(=O)CCCCC1CCSS1 [lipoamide]
Briefly: thermal stability z-score vs DMSO; higher = more thermally stabilized by treatment. Particulars: HeLa, lipoamide concentration 100 µM. Here is the method: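 Cellular thermal proteome profiling in HeLa cells. Cells were treated with 100 µM lipoamide for 1 h, with or without 1 mM arsenate for a further 1 h, then heated to ten temperatures (37-66.3 °C), and soluble protein was quantified by TMT mass spectrometry relative to 0.1% DMSO controls. The thermal stability score (sum of log2 fold changes minus the abundance score) was transformed to a z-score; mean of n = 3 experiments.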

Compound in another experiment: O=[As]([O-])(O)O.[K+] [potassium arsenate]
The experiment is described as above. Particulars: HeLa; arsenate concentration 1 mM. Here is the method:
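Cellular thermal proteome profiling in HeLa cells treated with 1 mM arsenate for 1 h (DMSO pretreatment), heated to ten temperatures (37-66.3 °C). Soluble protein was quantified by TMT mass spectrometry relative to DMSO controls; the thermal stability score was transformed to a z-score; mean of n = 3 experiments.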

[1] abbreviates: arsenate co-treatment: 1 mM arsenate 1 h.
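Also: each temperature applied for 3 min, abundance score taken as mean log2 fold change at the two lowest temperatures, z-score obtained by mean subtraction and division by SD.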

Sequence of UniProt Q29RF7 (Q29RF7 whole entry): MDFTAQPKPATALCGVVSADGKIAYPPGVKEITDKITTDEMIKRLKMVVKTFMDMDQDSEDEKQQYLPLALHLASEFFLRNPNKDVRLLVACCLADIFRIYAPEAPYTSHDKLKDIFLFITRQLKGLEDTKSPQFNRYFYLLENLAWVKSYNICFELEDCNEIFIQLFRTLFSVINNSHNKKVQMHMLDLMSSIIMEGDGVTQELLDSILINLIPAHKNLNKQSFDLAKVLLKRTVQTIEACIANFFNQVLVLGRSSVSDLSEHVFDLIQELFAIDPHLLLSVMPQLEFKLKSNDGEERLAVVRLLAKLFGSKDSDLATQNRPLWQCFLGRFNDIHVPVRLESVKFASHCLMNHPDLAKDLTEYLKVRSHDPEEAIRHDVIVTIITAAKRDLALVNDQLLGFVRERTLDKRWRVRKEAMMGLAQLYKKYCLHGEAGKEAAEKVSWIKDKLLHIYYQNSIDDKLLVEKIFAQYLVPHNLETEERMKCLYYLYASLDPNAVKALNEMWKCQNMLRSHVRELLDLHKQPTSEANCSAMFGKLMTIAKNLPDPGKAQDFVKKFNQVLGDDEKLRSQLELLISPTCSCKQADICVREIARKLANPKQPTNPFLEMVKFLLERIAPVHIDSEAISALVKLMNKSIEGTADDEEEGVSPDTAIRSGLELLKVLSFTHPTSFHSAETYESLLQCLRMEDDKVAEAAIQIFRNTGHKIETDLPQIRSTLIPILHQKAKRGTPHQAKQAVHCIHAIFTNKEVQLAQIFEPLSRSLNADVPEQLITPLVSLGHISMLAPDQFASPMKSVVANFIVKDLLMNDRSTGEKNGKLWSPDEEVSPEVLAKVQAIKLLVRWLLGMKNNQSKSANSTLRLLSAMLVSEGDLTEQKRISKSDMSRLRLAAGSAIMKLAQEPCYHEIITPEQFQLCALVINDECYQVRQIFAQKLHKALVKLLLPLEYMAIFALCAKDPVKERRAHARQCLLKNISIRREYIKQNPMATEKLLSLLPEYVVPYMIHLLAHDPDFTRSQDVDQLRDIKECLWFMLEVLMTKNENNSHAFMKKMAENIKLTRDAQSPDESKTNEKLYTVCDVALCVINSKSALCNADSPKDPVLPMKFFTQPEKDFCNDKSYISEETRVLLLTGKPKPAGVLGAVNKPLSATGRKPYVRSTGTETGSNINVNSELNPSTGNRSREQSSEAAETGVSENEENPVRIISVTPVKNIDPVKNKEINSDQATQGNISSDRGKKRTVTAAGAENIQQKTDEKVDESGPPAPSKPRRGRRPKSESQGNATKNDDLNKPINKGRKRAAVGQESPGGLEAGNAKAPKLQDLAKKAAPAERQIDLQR
Sequence of UniProt O00541 (O00541 whole entry): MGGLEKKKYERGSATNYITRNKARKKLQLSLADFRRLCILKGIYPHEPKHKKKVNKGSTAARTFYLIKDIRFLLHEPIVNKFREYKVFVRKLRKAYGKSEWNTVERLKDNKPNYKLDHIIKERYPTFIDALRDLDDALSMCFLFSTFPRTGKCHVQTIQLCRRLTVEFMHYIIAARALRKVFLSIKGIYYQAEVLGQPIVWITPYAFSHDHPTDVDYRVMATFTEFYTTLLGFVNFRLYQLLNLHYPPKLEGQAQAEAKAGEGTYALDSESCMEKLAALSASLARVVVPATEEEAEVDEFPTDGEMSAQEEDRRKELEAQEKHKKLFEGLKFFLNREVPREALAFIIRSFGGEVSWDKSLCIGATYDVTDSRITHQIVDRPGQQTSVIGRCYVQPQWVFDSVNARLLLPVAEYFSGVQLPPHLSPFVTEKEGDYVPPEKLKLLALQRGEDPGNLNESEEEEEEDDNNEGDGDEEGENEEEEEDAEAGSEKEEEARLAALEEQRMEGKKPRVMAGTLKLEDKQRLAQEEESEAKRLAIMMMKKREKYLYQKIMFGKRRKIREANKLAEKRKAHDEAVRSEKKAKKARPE
Sequence of UniProt Q5T2R2 (Q5T2R2 whole entry): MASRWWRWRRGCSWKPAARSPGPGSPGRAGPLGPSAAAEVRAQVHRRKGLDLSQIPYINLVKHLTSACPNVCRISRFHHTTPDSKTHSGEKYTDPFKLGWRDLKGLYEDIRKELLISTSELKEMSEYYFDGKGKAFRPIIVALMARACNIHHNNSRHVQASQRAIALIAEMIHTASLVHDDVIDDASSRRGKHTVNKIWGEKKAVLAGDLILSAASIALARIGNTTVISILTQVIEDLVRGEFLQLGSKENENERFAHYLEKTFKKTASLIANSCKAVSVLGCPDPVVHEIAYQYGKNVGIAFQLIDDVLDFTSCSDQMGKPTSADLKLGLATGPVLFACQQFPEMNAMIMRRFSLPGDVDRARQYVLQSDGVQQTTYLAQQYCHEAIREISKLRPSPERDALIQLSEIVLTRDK
Sequence of UniProt Q14554 (Q14554 whole entry): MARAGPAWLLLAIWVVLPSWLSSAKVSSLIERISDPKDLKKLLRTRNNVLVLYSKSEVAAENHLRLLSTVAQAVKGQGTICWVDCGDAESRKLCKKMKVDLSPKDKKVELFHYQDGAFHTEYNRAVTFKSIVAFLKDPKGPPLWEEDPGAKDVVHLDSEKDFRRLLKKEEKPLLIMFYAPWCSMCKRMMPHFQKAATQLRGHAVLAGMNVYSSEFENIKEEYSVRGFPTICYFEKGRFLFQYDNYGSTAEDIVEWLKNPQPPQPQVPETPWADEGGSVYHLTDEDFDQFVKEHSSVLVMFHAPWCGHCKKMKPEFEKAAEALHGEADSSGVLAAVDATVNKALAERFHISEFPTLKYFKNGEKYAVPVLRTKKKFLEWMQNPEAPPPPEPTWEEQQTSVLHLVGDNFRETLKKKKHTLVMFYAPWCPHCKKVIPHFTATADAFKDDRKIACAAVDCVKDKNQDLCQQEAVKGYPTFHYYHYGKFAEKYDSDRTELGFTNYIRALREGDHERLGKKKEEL
Sequence of UniProt Q9NUG6 (Q9NUG6 whole entry): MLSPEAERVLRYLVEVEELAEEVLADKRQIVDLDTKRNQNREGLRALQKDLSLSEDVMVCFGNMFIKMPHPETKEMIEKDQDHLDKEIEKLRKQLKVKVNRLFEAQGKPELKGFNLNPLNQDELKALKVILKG
Sequence of UniProt Q13608 (Q13608 whole entry): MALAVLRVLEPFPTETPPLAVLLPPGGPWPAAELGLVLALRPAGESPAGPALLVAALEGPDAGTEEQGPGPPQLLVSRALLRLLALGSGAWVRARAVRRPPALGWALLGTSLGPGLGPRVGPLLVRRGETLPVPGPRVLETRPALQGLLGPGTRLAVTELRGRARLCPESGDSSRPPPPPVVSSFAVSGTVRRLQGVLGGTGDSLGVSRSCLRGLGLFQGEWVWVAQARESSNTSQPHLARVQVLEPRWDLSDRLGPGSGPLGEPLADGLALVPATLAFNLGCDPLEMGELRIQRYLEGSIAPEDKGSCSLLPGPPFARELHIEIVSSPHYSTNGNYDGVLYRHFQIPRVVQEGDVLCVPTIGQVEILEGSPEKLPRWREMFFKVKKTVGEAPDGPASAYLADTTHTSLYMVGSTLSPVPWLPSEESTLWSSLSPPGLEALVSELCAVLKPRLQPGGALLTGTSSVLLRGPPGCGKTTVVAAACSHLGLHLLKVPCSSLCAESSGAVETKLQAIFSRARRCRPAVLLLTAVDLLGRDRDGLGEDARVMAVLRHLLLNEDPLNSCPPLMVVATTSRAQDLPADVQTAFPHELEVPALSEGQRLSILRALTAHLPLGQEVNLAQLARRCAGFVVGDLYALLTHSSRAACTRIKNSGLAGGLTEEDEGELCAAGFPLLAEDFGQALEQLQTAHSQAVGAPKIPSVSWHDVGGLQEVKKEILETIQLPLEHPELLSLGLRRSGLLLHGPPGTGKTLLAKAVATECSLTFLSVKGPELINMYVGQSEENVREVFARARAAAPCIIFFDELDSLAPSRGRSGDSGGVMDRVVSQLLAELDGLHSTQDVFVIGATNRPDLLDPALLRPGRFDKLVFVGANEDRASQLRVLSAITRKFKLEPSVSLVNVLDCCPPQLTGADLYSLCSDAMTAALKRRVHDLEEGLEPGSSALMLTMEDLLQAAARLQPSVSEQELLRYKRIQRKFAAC
Sequence of UniProt Q96GD0 (Q96GD0 whole entry): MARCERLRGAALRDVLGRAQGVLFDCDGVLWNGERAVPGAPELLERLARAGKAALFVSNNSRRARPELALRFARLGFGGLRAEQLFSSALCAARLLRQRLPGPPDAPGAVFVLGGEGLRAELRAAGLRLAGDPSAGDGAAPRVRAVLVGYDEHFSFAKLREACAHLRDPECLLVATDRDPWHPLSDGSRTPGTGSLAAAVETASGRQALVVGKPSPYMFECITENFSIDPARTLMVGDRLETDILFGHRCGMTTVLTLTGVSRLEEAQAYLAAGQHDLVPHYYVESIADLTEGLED
Sequence of UniProt O00151 (O00151 whole entry): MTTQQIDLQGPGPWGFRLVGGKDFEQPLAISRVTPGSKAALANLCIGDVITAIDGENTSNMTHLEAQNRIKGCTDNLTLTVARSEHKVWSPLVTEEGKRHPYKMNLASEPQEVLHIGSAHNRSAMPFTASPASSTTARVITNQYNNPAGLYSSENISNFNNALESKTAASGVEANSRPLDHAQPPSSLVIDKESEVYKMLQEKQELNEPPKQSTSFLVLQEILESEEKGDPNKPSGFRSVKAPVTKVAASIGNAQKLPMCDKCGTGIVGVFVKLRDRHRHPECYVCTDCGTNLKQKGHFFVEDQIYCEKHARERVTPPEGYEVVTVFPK
Sequence of UniProt P30086 (P30086 whole entry, looked up): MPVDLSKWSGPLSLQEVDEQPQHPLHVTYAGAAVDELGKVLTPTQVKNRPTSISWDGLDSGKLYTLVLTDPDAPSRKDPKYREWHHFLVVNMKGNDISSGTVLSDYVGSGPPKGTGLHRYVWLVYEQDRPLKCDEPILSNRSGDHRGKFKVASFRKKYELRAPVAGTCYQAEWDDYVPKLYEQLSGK
Sequence of UniProt O60925 (O60925 whole entry): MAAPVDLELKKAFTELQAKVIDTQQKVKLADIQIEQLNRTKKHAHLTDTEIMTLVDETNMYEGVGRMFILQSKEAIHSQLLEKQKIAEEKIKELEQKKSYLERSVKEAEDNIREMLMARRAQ

Turning to PDIA4 (UniProt P13667), the thermal stability z-score with lipoamide (setting [1]) is -2.99; in the experiment with lipoamide (arsenate co-treatment: none), -2.13; with potassium arsenate, 0.648.

Consider PDIA5 (UniProt Q14554), for which the thermal stability z-score with lipoamide (setting [1]) is -3.58; with lipoamide (arsenate co-treatment: none) it was -2.41; in the experiment with potassium arsenate it was 0.611.

Regarding PDIA6 (UniProt Q15084), the thermal stability z-score was -2.44 in the experiment with lipoamide (setting [1]), -1.84 with lipoamide (arsenate co-treatment: none) and 0.475 with potassium arsenate.

In the case of PDK1 (UniProt Q15118), the thermal stability z-score with lipoamide (setting [1]) was 0.35; with lipoamide (arsenate co-treatment: none), -0.0874; in the experiment with potassium arsenate, 0.836.

For the target PDK2 (UniProt Q15119), the thermal stability z-score worked out at 0.292 with lipoamide (setting [1]), 0.0166 with lipoamide (arsenate co-treatment: none) and 0.0862 with potassium arsenate.

PDLIM1 (UniProt O00151): the thermal stability z-score is 0.156 with lipoamide (setting [1]), 0.134 with lipoamide (arsenate co-treatment: none) and -0.239 with potassium arsenate.

As for PDLIM2 (UniProt Q96JY6), the thermal stability z-score is -0.719 with lipoamide (setting [1]), -0.463 in the experiment with lipoamide (arsenate co-treatment: none) and -0.0521 with potassium arsenate.

In the case of PDLIM5 (UniProt Q96HC4), the thermal stability z-score was -0.252 in the experiment with lipoamide (setting [1]), -0.371 with lipoamide (arsenate co-treatment: none) and -2.23 with potassium arsenate.

PDLIM7 (UniProt Q9NR12): the figures for the thermal stability z-score in the experiment with lipoamide (setting [1]), with lipoamide (arsenate co-treatment: none) and with potassium arsenate were -0.856, -0.95 and -1.12, respectively.

As to PDP1 (UniProt Q9P0J1), the thermal stability z-score is 0.0374 with lipoamide (setting [1]), -0.191 with lipoamide (arsenate co-treatment: none) and -0.0616 with potassium arsenate.

PDPK1 (UniProt O15530): the thermal stability z-score with lipoamide (setting [1]) is 0.174; with lipoamide (arsenate co-treatment: none), 0.131; with potassium arsenate, 0.451.

As to PDPR (UniProt Q8NCN5), the thermal stability z-score was 0.399 with lipoamide (setting [1]), 0.429 in the experiment with lipoamide (arsenate co-treatment: none) and -0.181 in the experiment with potassium arsenate.

Consider PDRG1 (UniProt Q9NUG6), for which the thermal stability z-score with lipoamide (setting [1]) was 0.0914; with lipoamide (arsenate co-treatment: none), -0.238; with potassium arsenate, 0.203.

Regarding PDS5A (UniProt Q29RF7), the results for the thermal stability z-score in the experiment with lipoamide (setting [1]), with lipoamide (arsenate co-treatment: none) and in the experiment with potassium arsenate were 0.543, 0.408 and -0.428, respectively.

As to PDS5B (UniProt Q9NTI5), the thermal stability z-score with lipoamide (setting [1]) is 0.839; with lipoamide (arsenate co-treatment: none), 0.426; in the experiment with potassium arsenate, -0.362.

As for PDSS1 (UniProt Q5T2R2), the values for the thermal stability z-score with lipoamide (setting [1]), in the experiment with lipoamide (arsenate co-treatment: none) and in the experiment with potassium arsenate were 0.272, 0.466 and 0.423, respectively.

Turning to PDSS2 (UniProt Q86YH6), the thermal stability z-score in the experiment with lipoamide (setting [1]) was 0.66; with lipoamide (arsenate co-treatment: none), 0.484; with potassium arsenate, -0.169.

Consider PDXDC1 (UniProt Q6P996), for which the thermal stability z-score with lipoamide (setting [1]) was -0.964; with lipoamide (arsenate co-treatment: none), -0.497; in the experiment with potassium arsenate it was 0.73.

On to PDXK (UniProt O00764), for which the thermal stability z-score is -0.427 in the experiment with lipoamide (setting [1]), -0.245 with lipoamide (arsenate co-treatment: none) and -0.829 in the experiment with potassium arsenate.

PDXP (UniProt Q96GD0): the values for the thermal stability z-score with lipoamide (setting [1]), with lipoamide (arsenate co-treatment: none) and with potassium arsenate were 0.0465, 0.133 and -0.658, respectively.

Regarding PDZD8 (UniProt Q8NEN9), the values for the thermal stability z-score with lipoamide (setting [1]), with lipoamide (arsenate co-treatment: none) and with potassium arsenate were -0.155, 0.291 and 0.123, respectively.

Take PDZD11 (UniProt Q5EBL8): the figures for the thermal stability z-score with lipoamide (setting [1]), with lipoamide (arsenate co-treatment: none) and with potassium arsenate were -0.0819, -0.0179 and 0.0963, respectively.

PEA15 (UniProt Q15121): the thermal stability z-score with lipoamide (setting [1]) came out at 0.388; with lipoamide (arsenate co-treatment: none) it was 0.243; in the experiment with potassium arsenate, 0.716.

On to PEBP1 (UniProt P30086), for which the thermal stability z-score was 0.203 in the experiment with lipoamide (setting [1]), 0.0137 with lipoamide (arsenate co-treatment: none) and -0.433 with potassium arsenate.

In the case of PEF1 (UniProt Q9UBV8), the thermal stability z-score with lipoamide (setting [1]) came out at 0.534; with lipoamide (arsenate co-treatment: none), 0.979; with potassium arsenate, 0.494.

As to PEG10 (UniProt Q86TG7), the thermal stability z-score with lipoamide (setting [1]) was -0.289; in the experiment with lipoamide (arsenate co-treatment: none) it was -0.464; with potassium arsenate, -0.109.

Regarding PELO (UniProt Q9BRX2), the thermal stability z-score with lipoamide (setting [1]) is -0.811; in the experiment with lipoamide (arsenate co-treatment: none), -0.364; with potassium arsenate, -0.0213.

On to PELP1 (UniProt Q8IZL8), for which the thermal stability z-score with lipoamide (setting [1]) amounted to 1.14; with lipoamide (arsenate co-treatment: none), 0.206; in the experiment with potassium arsenate, 0.449.

On to PEO1 (UniProt Q96RR1), for which the thermal stability z-score in the experiment with lipoamide (setting [1]) is -0.0405; in the experiment with lipoamide (arsenate co-treatment: none), 0.0511; in the experiment with potassium arsenate it was 0.122.

In the case of PEPD (UniProt P12955), the thermal stability z-score with lipoamide (setting [1]) is 0.359; with lipoamide (arsenate co-treatment: none), 0.112; with potassium arsenate, -0.732.

On to PER1 (UniProt O15534), for which the thermal stability z-score was 0.107 with lipoamide (setting [1]), -0.119 with lipoamide (arsenate co-treatment: none) and -0.023 in the experiment with potassium arsenate.

As for PES1 (UniProt O00541), the thermal stability z-score was -0.108 with lipoamide (setting [1]), 0.121 in the experiment with lipoamide (arsenate co-treatment: none) and -0.721 with potassium arsenate.

As to PEX1 (UniProt O43933), the thermal stability z-score in the experiment with lipoamide (setting [1]) was -0.254; in the experiment with lipoamide (arsenate co-treatment: none), -0.723; in the experiment with potassium arsenate it was -0.382.

Turning to PEX3 (UniProt P56589), the figures for the thermal stability z-score with lipoamide (setting [1]), with lipoamide (arsenate co-treatment: none) and with potassium arsenate were -0.415, -0.151 and -0.285, respectively.

For the target PEX5 (UniProt P50542), the thermal stability z-score is -0.624 with lipoamide (setting [1]), -0.706 with lipoamide (arsenate co-treatment: none) and 0.137 with potassium arsenate.

As to PEX6 (UniProt Q13608), the figures for the thermal stability z-score with lipoamide (setting [1]), with lipoamide (arsenate co-treatment: none) and in the experiment with potassium arsenate were 0.132, 0.339 and 0.938, respectively.

With PEX11B (UniProt O96011), the values for the thermal stability z-score with lipoamide (setting [1]), with lipoamide (arsenate co-treatment: none) and with potassium arsenate were -0.443, -0.349 and -0.497, respectively.

With PEX13 (UniProt Q92968), the values for the thermal stability z-score with lipoamide (setting [1]), with lipoamide (arsenate co-treatment: none) and in the experiment with potassium arsenate were 0.444, 0.834 and 0.284, respectively.

As for PEX14 (UniProt O75381), the results for the thermal stability z-score with lipoamide (setting [1]), with lipoamide (arsenate co-treatment: none) and with potassium arsenate were -0.54, -0.596 and -0.269, respectively.

In the case of PEX16 (UniProt Q9Y5Y5), the thermal stability z-score with lipoamide (setting [1]) was -1.58; with lipoamide (arsenate co-treatment: none), -0.719; with potassium arsenate it was -0.441.

For the target PEX19 (UniProt P40855), the thermal stability z-score in the experiment with lipoamide (setting [1]) worked out at 1.96; with lipoamide (arsenate co-treatment: none), 1.51; with potassium arsenate, 1.13.

On to PFAS (UniProt O15067), for which the thermal stability z-score is -0.279 in the experiment with lipoamide (setting [1]), 0.208 in the experiment with lipoamide (arsenate co-treatment: none) and -1.25 in the experiment with potassium arsenate.

Consider PFDN1 (UniProt O60925), for which the thermal stability z-score came to 1.42 with lipoamide (setting [1]), 1.53 with lipoamide (arsenate co-treatment: none) and 0.744 with potassium arsenate.
